Where “and” joins values, the source holds several entries; their conditions need not be identical. Equal values may be shown once.
Assay: molar heat capacity at constant pressure
Conditions: 101.33 kPa

CCC[n+]1ccn(C)c1.[Br-] [1-methyl-3-propylimidazolium bromide]
Conditions	molar heat capacity at constant pressure
173.15 K, Glass, Small (less than 1 g) adiabatic calorimetry	156.22 J/K/mol
173.73 K, Crystal, Vacuum adiabatic calorimetry	150.42 J/K/mol
173.86 K, Metastable crystal, Small (less than 1 g) adiabatic calorimetry	151.16 J/K/mol
174.05 K, Crystal, Vacuum adiabatic calorimetry	150.49 J/K/mol
174.37 K, Glass, Small (less than 1 g) adiabatic calorimetry	156.97 J/K/mol
175.42 K, Crystal, Vacuum adiabatic calorimetry	151.1 J/K/mol
175.61 K, Glass, Small (less than 1 g) adiabatic calorimetry	157.68 J/K/mol
175.8 K, Crystal, Vacuum adiabatic calorimetry	151.34 J/K/mol
176.31 K, Metastable crystal, Small (less than 1 g) adiabatic calorimetry	156.29 J/K/mol
176.79 K, Crystal, Vacuum adiabatic calorimetry	151.84 J/K/mol
177.16 K, Glass, Small (less than 1 g) adiabatic calorimetry	158.66 J/K/mol
177.87 K, Crystal, Vacuum adiabatic calorimetry	152.35 J/K/mol
178.06 K, Glass, Small (less than 1 g) adiabatic calorimetry	159.2 J/K/mol
178.16 K, Crystal, Vacuum adiabatic calorimetry	152.6 J/K/mol
178.77 K, Metastable crystal, Small (less than 1 g) adiabatic calorimetry	157.34 J/K/mol
179.54 K, Crystal, Vacuum adiabatic calorimetry	153.2 J/K/mol
179.94 K, Crystal, Vacuum adiabatic calorimetry	153.35 J/K/mol
179.96 K, Glass, Small (less than 1 g) adiabatic calorimetry	160.43 J/K/mol
180.51 K, Glass, Small (less than 1 g) adiabatic calorimetry	160.72 J/K/mol
180.91 K, Crystal, Vacuum adiabatic calorimetry	153.97 J/K/mol
181.24 K, Metastable crystal, Small (less than 1 g) adiabatic calorimetry	158.54 J/K/mol
182.01 K, Crystal, Vacuum adiabatic calorimetry	154.36 J/K/mol
182.28 K, Crystal, Vacuum adiabatic calorimetry	154.57 J/K/mol
182.76 K, Glass, Small (less than 1 g) adiabatic calorimetry	162.21 J/K/mol
182.96 K, Glass, Small (less than 1 g) adiabatic calorimetry	162.2 J/K/mol
183.71 K, Metastable crystal, Small (less than 1 g) adiabatic calorimetry	159.86 J/K/mol
184.08 K, Crystal, Vacuum adiabatic calorimetry	155.44 J/K/mol
184.32 K, Crystal, Vacuum adiabatic calorimetry	155.34 J/K/mol
185.31 K, Crystal, Vacuum adiabatic calorimetry	156.02 J/K/mol
185.4 K, Glass, Small (less than 1 g) adiabatic calorimetry	163.81 J/K/mol
185.55 K, Glass, Small (less than 1 g) adiabatic calorimetry	163.97 J/K/mol
186.15 K, Crystal, Vacuum adiabatic calorimetry	156.46 J/K/mol
186.18 K, Metastable crystal, Small (less than 1 g) adiabatic calorimetry	161.18 J/K/mol
186.86 K, Crystal, Vacuum adiabatic calorimetry	156.54 J/K/mol
187 K, Crystal, Vacuum adiabatic calorimetry	156.84 J/K/mol
187.85 K, Glass, Small (less than 1 g) adiabatic calorimetry	165.5 J/K/mol
188.22 K, Crystal, Vacuum adiabatic calorimetry	157.39 J/K/mol
188.33 K, Glass, Small (less than 1 g) adiabatic calorimetry	165.89 J/K/mol
188.37 K, Crystal, Vacuum adiabatic calorimetry	157.44 J/K/mol
188.65 K, Metastable crystal, Small (less than 1 g) adiabatic calorimetry	162.48 J/K/mol
189.74 K, Crystal, Vacuum adiabatic calorimetry	158.15 J/K/mol and 158.27 J/K/mol
190.29 K, Crystal, Vacuum adiabatic calorimetry	158.43 J/K/mol
190.29 K, Glass, Small (less than 1 g) adiabatic calorimetry	167.25 J/K/mol
190.58 K, Crystal, Vacuum adiabatic calorimetry	158.53 J/K/mol
191.11 K, Crystal, Vacuum adiabatic calorimetry	158.93 J/K/mol
191.12 K, Glass, Small (less than 1 g) adiabatic calorimetry	167.98 J/K/mol
191.12 K, Metastable crystal, Small (less than 1 g) adiabatic calorimetry	163.72 J/K/mol
192.28 K, Crystal, Vacuum adiabatic calorimetry	159.62 J/K/mol
192.36 K, Crystal, Vacuum adiabatic calorimetry	159.59 J/K/mol
192.48 K, Crystal, Vacuum adiabatic calorimetry	159.63 J/K/mol
192.74 K, Glass, Small (less than 1 g) adiabatic calorimetry	168.95 J/K/mol
193.11 K, Crystal, Vacuum adiabatic calorimetry	160.08 J/K/mol
193.58 K, Metastable crystal, Small (less than 1 g) adiabatic calorimetry	165.05 J/K/mol
193.85 K, Crystal, Vacuum adiabatic calorimetry	160.55 J/K/mol
193.9 K, Glass, Small (less than 1 g) adiabatic calorimetry	169.91 J/K/mol
194.35 K, Crystal, Vacuum adiabatic calorimetry	160.92 J/K/mol
195.18 K, Crystal, Vacuum adiabatic calorimetry	161.48 J/K/mol
195.19 K, Glass, Small (less than 1 g) adiabatic calorimetry	171.15 J/K/mol
195.22 K, Crystal, Vacuum adiabatic calorimetry	161.53 J/K/mol
196.05 K, Metastable crystal, Small (less than 1 g) adiabatic calorimetry	166.26 J/K/mol
196.59 K, Crystal, Vacuum adiabatic calorimetry	162.52 J/K/mol
196.68 K, Glass, Small (less than 1 g) adiabatic calorimetry	172.49 J/K/mol
197.24 K, Crystal, Vacuum adiabatic calorimetry	163.14 J/K/mol
197.62 K, Glass, Small (less than 1 g) adiabatic calorimetry	173.39 J/K/mol
197.95 K, Crystal, Vacuum adiabatic calorimetry	163.6 J/K/mol
198.51 K, Crystal, Vacuum adiabatic calorimetry	164.2 J/K/mol
198.51 K, Metastable crystal, Small (less than 1 g) adiabatic calorimetry	167.53 J/K/mol
199.3 K, Crystal, Vacuum adiabatic calorimetry	164.84 J/K/mol
